Our source for the activity and PAI-1 activity % values is US10092537B2, “Use for PAI-1 inhibitor” (RENASCIENCE CO., LTD., priority 2013, dated 2018).

Counter-ions that a name gives are not always drawn.

T1 sequence (P05121 24-402): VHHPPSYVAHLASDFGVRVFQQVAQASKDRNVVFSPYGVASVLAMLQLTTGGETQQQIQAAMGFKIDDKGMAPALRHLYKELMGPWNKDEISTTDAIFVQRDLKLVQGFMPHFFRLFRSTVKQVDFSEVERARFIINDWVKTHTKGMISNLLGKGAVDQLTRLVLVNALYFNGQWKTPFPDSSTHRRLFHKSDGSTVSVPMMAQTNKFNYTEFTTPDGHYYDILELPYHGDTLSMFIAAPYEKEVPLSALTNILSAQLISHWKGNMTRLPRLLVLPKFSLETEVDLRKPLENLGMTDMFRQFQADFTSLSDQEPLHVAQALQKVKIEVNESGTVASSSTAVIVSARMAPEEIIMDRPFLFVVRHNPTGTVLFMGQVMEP

The first experiment has as its target T1, human PAI-1 (Homo sapiens, UniProt P05121). Nature of the experiment: Measurement of PAI-1 inhibitory activity of compound group 1 (t-PA, S-2288 chromogenic substrate). Particulars: read-out: PAI-1 activity %.
Method: Subsequently, human-derived tissue plasminogen activator (t-PA) (manufactured by American Diagnostica, Inc. (USA); the same applies hereinafter) adjusted to 0.35 pmol/μL was added thereto, and the mixture was further incubated at 37° C. for 15 minutes.
Turning to `O=C(CCCNC(=O)c1cccc(-c2ccoc2)c1)Nc1ccc(Cl)cc1C(=O)O` [Example 1, 5-chloro-2-{[4-({[3-(furan-3-yl)phenyl]carbonyl}amino)butanoyl]amino}benzoic acid], the activity at 20 µM was found to be 95.5% and the activity at 50 µM came to 48.9%.

In the case of `O=C(Cc1cccc(-c2ccoc2)c1)Nc1ccc(Cl)cc1C(=O)O` [Example 3, 5-chloro-2-({[3-(furan-3-yl)phenyl]acetyl}amino)benzoic acid], the activity at 20 µM was 63.7% and the activity at 50 µM stood at 19.6%.

On to `Cc1sc(NC(=O)c2cccc(-c3ccoc3)c2)c(C(=O)O)c1-c1ccccc1` [Example 5, 2-({[3-(furan-3-yl)phenyl]carbonyl}amino)-5-methyl-4-phenylthiophene-3-carboxylic acid], for which the activity at 20 µM stood at 14.7% and the activity at 50 µM worked out at 6.1%.

As to `O=C(O)c1cc(Cl)ccc1NC(=O)c1ccccc1-c1ccccc1` [Example 6, 2-[(biphenyl-2-ylcarbonyl)amino]-5-chlorobenzoic acid], the activity at 20 µM was 51.4% and the activity at 50 µM worked out at 22.2%.

In the case of `O=C(Nc1ccc(Cl)cc1C(=O)O)c1ccc(-c2cccs2)cc1` [Example 7, 5-chloro-2-({[4-(thiophen-2-yl)phenyl]carbonyl}amino)benzoic acid], the activity at 20 µM was found to be 54.2% and the activity at 50 µM was determined as 7.4%.

Regarding `O=C(O)c1cc(Cl)ccc1NC(=O)[C@@H]1CCCN1C(=O)Cc1cccc(-c2ccoc2)c1` [Example 9, 5-chloro-2-[(1-{[3-(furan-3-yl)phenyl]acetyl}-L-prolyl)amino]benzoic acid], the activity at 20 µM amounted to 98.1% and the activity at 50 µM amounted to 53.2%.

For the compound `O=C(O)c1cc(Cl)ccc1NC(=O)[C@@H]1CCCN1C(=O)c1cccc(-c2ccoc2)c1` [Example 10, 5-chloro-2-[(-{[3-(furan-3-yl)phenyl]carbonyl}-L-prolyl)amino]benzoic acid], the activity at 20 µM worked out at 73% and the activity at 50 µM came out at 38.3%.

For the compound `O=C(O)c1cc(Cl)ccc1NC(=O)C1CCCN(C(=O)Cc2cccc(-c3ccoc3)c2)C1` (stereo not shown) [Example 12, 5-chloro-2-{[(1-{[3-(furan-3-yl)phenyl]acetyl}piperidin-3-yl)carbonyl]amino}benzoic acid], the activity at 20 µM stood at 57.7% and the activity at 50 µM worked out at 15.7%.

For `Cn1cc(C(=O)C(=O)Nc2ccc(Cl)cc2C(=O)O)c2cc(-c3ccoc3)ccc21` [Example 14, 5-chloro-2-({[5-(furan-3-yl)-1-methyl-1H-indol-3-yl](oxo)acetyl}amino)benzoic acid], the activity at 20 µM stood at 22.1% and the activity at 50 µM worked out at 12.9%.

Take `CC(C)(C)c1ccc(C(=O)Nc2ccc(Cl)cc2C(=O)O)cc1` [Known compound (1), 2-{[(4-tert-butylphenyl)carbonyl]amino}-5-chlorobenzoic acid, reference compound]: the activity at 20 µM amounted to 44% and the activity at 50 µM was 11%.

As to `O=C(Nc1ccc(Cl)cc1C(=O)O)c1ccc(-c2ccccc2)cc1` [Known compound (2), 2-[(biphenyl-4-ylcarbonyl)amino]-5-chlorobenzoic acid, reference compound], the activity at 20 µM was 41.8% and the activity at 50 µM was found to be 8%.

For another experiment, the target named is T1, human PAI-1. Nature of the experiment: Measurement of PAI-1 inhibitory activity of compound group 2 (t-PA, S-2288 chromogenic substrate). To be noted: compound 20 μM; PAI-1 activity of the system without compound after 30 minutes taken as 100%.
Method: Subsequently, human-derived tissue plasminogen activator (t-PA) (manufactured by American Diagnostica, Inc. (USA); the same applies hereinafter) adjusted to 0.3 pmol/μL was added thereto, and the mixture was further incubated at 37° C. for 15 minutes.
As to “5-chloro-2-({[4-(pyrrolidin-1-yl)phenyl]carbonyl}amino)benzoic acid hydrochloride [Example 83]”, the PAI-1 activity % came to 99.8%.

The experiment is the same for the next values; noted with them: compound 50 μM; PAI-1 activity of the system without compound after 30 minutes taken as 100%.
As for “5-chloro-2-({[4-(pyrrolidin-1-yl)phenyl]carbonyl}amino)benzoic acid hydrochloride [Example 83]”, the PAI-1 activity % is 77.8%.

The next experiment addresses T1, human PAI-1. Nature of the experiment: Measurement of PAI-1 inhibitory activity of compound group 1 (t-PA, Spectrozyme t-PA chromogenic substrate). Particulars: read-out: PAI-1 activity %.
Method: Subsequently, human-derived tissue plasminogen activator (t-PA) (manufactured by American Diagnostica, Inc. (USA); the same applies hereinafter) adjusted to 0.05 pmol/μL was added thereto, and the mixture was further incubated at 37° C. for 60 minutes. Then, 0.25 mM of Spectrozyme t-PA synthetic substrate (manufactured by American Diagnostica, Inc. (USA); the same applies hereinafter), which is a chromogenic substrate, was added. The final mixture contained 50 mM Tris-HCl (pH 8), 150 mM NaCl, 1% DMSO, 0.1% PEG-6000, 0.2 mM CHAPS, 5 nM PAI-1, 2 nM t-PA, 0.2 mM Spectrozyme t-PA synthetic substrate, and each compound (10 μM or 2.5 μM).
Free radical p-nitroaniline removed from the chromogenic substrate (Spectrozyme t-PA) by t-PA action was measured using a spectrophotometer at an absorbance of 405 nm at 20-minute intervals, for 120 minutes.
As to `Cc1sc(NC(=O)c2cccc(-c3ccoc3)c2)c(C(=O)O)c1-c1ccccc1` [Example 5, 2-({[3-(furan-3-yl)phenyl]carbonyl}amino)-5-methyl-4-phenylthiophene-3-carboxylic acid], the activity at 2.5 µM was 46.4% and the activity at 10 µM worked out at 0.3%.

For `O=C(Nc1ccc(Cl)cc1C(=O)O)c1ccc(-c2cccs2)cc1` [Example 7, 5-chloro-2-({[4-(thiophen-2-yl)phenyl]carbonyl}amino)benzoic acid], the activity at 2.5 µM came to 99.8% and the activity at 10 µM worked out at 0.4%.

Consider `Cn1cc(C(=O)C(=O)Nc2ccc(Cl)cc2C(=O)O)c2cc(-c3ccoc3)ccc21` [Example 14, 5-chloro-2-({[5-(furan-3-yl)-1-methyl-1H-indol-3-yl](oxo)acetyl}amino)benzoic acid], for which the activity at 2.5 µM is 87.4% and the activity at 10 µM is 4.3%.

`C#Cc1ccc(NC(=O)c2ccc(C3CCCCC3)cc2)c(C(=O)O)c1` [Example 95, 2-{[(4-cyclohexylphenyl)carbonyl]amino}-5-ethynylbenzoic acid]: the activity at 2.5 µM came to 80.5% and the activity at 10 µM is 0.3%.

With `O=C(Nc1ccc(Cl)cc1C(=O)O)c1ccc(CC23CC4CC(CC(C4)C2)C3)cc1` [Example 96, 2-({[4-(adamantan-1-ylmethyl)phenyl]carbonyl}amino)-5-chlorobenzoic acid], the activity at 2.5 µM was 23.9% and the activity at 10 µM is 5%.

In the case of `O=C(Nc1ccc(Cl)cc1C(=O)O)c1ccc(C(O)C23CC4CC(CC(C4)C2)C3)cc1` (stereo not shown) [Example 97, 2-[({4-[adamantan-1-yl(hydroxy)methyl]phenyl}carbonyl)amino]-5-chlorobenzoic acid], the activity at 2.5 µM was determined as 89.9% and the activity at 10 µM came out at 0.7%.

Turning to `CC1(c2ccc(C(=O)Nc3ccc(Cl)cc3C(=O)O)cc2)CCCCC1` [Example 98, 5-chloro-2-({[4-(1-methylcyclohexyl)phenyl]carbonyl}amino)benzoic acid], the activity at 2.5 µM was 41.5% and the activity at 10 µM is 0.1%.

In the case of `O=C(Nc1ccc(Cl)cc1C(=O)O)c1cccc(OCc2ccc3ccccc3n2)c1` [Example 99, sodium 5-chloro-2-({[3-(quinolin-2-ylmethoxy)phenyl]carbonyl}amino)benzoate], the activity at 2.5 µM was found to be 87.8% and the activity at 10 µM is 0.3%.

In the case of `O=C(Nc1ccc(Cl)cc1C(=O)O)c1ccc(OCc2ccc3ccccc3n2)cc1` [Example 100, sodium 5-chloro-2-({[4-(quinolin-2-ylmethoxy)phenyl]carbonyl}amino)benzoate], the activity at 2.5 µM was found to be 92.1% and the activity at 10 µM came to 0.7%.

As to `O=C(/C=C/c1cccc(-c2cccc3cccnc23)c1)Nc1ccc(Cl)cc1C(=O)O` [Example 101, sodium 5-chloro-2-({(2E)-3-[3-(quinolin-8-yl)phenyl]prop-2-enoyl}amino)benzoate], the activity at 2.5 µM is 24.7% and the activity at 10 µM came out at 0.2%.

For the compound `O=C(Nc1ccc(Cl)cc1-c1nnn[nH]1)c1cccc(-c2cccc3cccnc23)c1` [Example 102, N-[4-chloro-2-(1H-tetrazol-5-yl)phenyl]-3-(quinolin-8-yl)benzamide], the activity at 2.5 µM is 91.3% and the activity at 10 µM was determined as 1.5%.

As to `O=C(/C=C/c1cccc(-c2cccnc2)c1)Nc1ccc(Cl)cc1C(=O)O` [Example 103, sodium 5-chloro-2-({(2E)-3-[3-(pyridin-3-yl)phenyl]prop-2-enoyl}amino)benzoate], the activity at 2.5 µM is 92.3% and the activity at 10 µM came to 34.2%.

In the case of `O=C(Nc1ccc(Cl)cc1C(=O)O)c1ccc(-c2ccc(F)cc2)s1` [Example 104, 5-chloro-2-({[5-(4-fluorophenyl)thiophen-2-yl]carbonyl}amino)benzoic acid], the activity at 2.5 µM is 84.8% and the activity at 10 µM was determined as 0.9%.

`O=C(Nc1ccc(Cl)cc1C(=O)O)c1ccc(-c2ccccc2)o1` [Example 105, 5-chloro-2-{[(5-phenylfuran-2-yl)carbonyl]amino}benzoic acid]: the activity at 2.5 µM came to 89.9% and the activity at 10 µM turned out to be 23.5%.

As to `O=C(Nc1ccc(C23CC4CC(CC(C4)C2)C3)cc1)C(=O)Nc1ccc(Cl)cc1C(=O)O` [Example 106, sodium 2-[({[4-(adamantan-1-yl)phenyl]amino}(oxo)acetyl)amino]-5-chlorobenzoate], the activity at 2.5 µM came to 88.4% and the activity at 10 µM amounted to 26.3%.

As to `O=C(O)c1cc(Cl)ccc1NC(=O)c1cc(-c2ccccc2)nc2ccccc12` [Example 107, sodium 5-chloro-2-{[(2-phenylquinolin-4-yl)carbonyl]amino}benzoate], the activity at 2.5 µM was determined as 100% and the activity at 10 µM stood at 6.7%.

Take `CC(C)(C)c1ccc(C(=O)Nc2ccc(Cl)cc2C(=O)O)cc1` [Known compound (1), 2-{[(4-tert-butylphenyl)carbonyl]amino}-5-chlorobenzoic acid, reference compound]: the activity at 2.5 µM is 100% and the activity at 10 µM is 12.7%.

Take `O=C(Nc1ccc(Cl)cc1C(=O)O)c1ccc(-c2ccccc2)cc1` [Known compound (2), 2-[(biphenyl-4-ylcarbonyl)amino]-5-chlorobenzoic acid, reference compound]: the activity at 2.5 µM is 70.7% and the activity at 10 µM came to 0.2%.

On to `O=C(COc1ccc(C2CCCCC2)cc1)Nc1ccc(Cl)cc1C(=O)O` [Known compound (3), 5-chloro-2-{[(4-cyclohexylphenoxy)acetyl]amino} benzoic acid, reference compound], for which the activity at 2.5 µM is 36.3% and the activity at 10 µM worked out at 0.3%.

With `O=C(Nc1ccc(Cl)cc1C(=O)O)c1ccc(C(=O)c2ccccc2)cc1` [Known compound (4), 5-chloro-2-{[(4-(phenylcarbonyl)phenyl]carbonyl}amino} benzoic acid, reference compound], the activity at 2.5 µM turned out to be 79.6% and the activity at 10 µM amounted to 8.1%.

Take `O=C(Nc1ccc(Cl)cc1C(=O)O)c1ccc2c(c1)CCCC2` [Known compound (5), 5-chloro-2-[(5,6,7,8-tetrahydronaphthalene-2-ylcarbonyl)amino] benzoic acid, reference compound]: the activity at 2.5 µM came to 98.5% and the activity at 10 µM came out at 18.8%.

Consider `O=C(O)c1cc(Cl)ccc1NC(=O)C(c1ccccc1)c1ccccc1` [Known compound (6), 5-chloro-2-[(diphenylacetyl)amino] benzoic acid, reference compound], for which the activity at 2.5 µM was 85% and the activity at 10 µM was found to be 37.4%.

In the case of `O=C(Nc1ccc(Cl)cc1C(=O)O)c1ccc(-n2cccc2)cc1` [Salt of Known compound (7), 5-chloro-2-({[4-(1H-pyrrol-1-yl)phenyl]carbonyl}amino)benzoic acid hydrochloride, reference compound], the activity at 2.5 µM was determined as 100% and the activity at 10 µM worked out at 3.7%.
